Our source for the IC50 values is ChEMBL document CHEMBL4725455, “Use of Dihydroorotate Dehydrogenase Inhibitors for Treatment of Autoimmune Diseases and Cancer” (ACS Med Chem Lett, 2020).

One may read the IC50 as the midpoint of a concentration-inhibition curve.

This assay deals with Dihydroorotate dehydrogenase (quinone), mitochondrial (Homo sapiens, UniProt Q02127). The experiment in a line: Inhibition of DHODH (unknown origin) using L-dihydroorotic acid as substrate preincubated for 30 mins followed by substrate addition measured every 10 mins in presence of decylubiquinone by DCIP dye based coupled enzyme assay.
Dihydroorotate dehydrogenase (quinone), mitochondrial, sequence (Q02127 whole entry): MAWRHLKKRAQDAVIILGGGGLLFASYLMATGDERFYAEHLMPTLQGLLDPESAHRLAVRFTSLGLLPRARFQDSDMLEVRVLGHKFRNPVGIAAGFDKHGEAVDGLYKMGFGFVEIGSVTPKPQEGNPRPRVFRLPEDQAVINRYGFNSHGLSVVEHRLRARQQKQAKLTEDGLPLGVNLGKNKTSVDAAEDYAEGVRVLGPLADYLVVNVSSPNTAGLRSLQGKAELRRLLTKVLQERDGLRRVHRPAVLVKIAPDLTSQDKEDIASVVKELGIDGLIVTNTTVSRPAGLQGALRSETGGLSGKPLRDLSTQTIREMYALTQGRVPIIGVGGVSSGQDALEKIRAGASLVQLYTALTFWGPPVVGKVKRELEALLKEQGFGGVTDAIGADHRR
Consider `Cc1nc2c(C(=O)O)cc(-c3c(F)c(F)c(-c4ccc(CN5CCCC(F)(F)C5)cc4)c(F)c3F)cc2[nH]1`, for which the IC50 worked out at 1 nM.
The figure for `Cc1nc2c(C(=O)O)cc(-c3ccc(-c4ccccc4)cc3)cc2[nH]1` is 10 nM; for `Cc1nc2c(C(=O)O)cc(-c3ccc(-n4c(C)ccc4C)cc3)cc2[nH]1` it is 1 nM.
To `Cc1nc2c(C(=O)O)cc(-c3ccc(-c4ccccc4CN4CCCC4)cc3)cc2[nH]1` belongs 1 nM.
To `Cc1nc2c(C(=O)O)cc(-c3c(F)c(F)c(-c4ccccc4)c(F)c3F)cc2[nH]1` belongs 1 nM; to `Cc1nc2c(C(=O)O)cc(-c3c(F)c(F)c(-c4ccc(CN5CCOCC5)cc4)c(F)c3F)cc2[nH]1`, 10 nM.
As for `Cc1nc2c(C(=O)O)cc(-c3ccc(-c4ccc(O)cc4)cc3)cc2[nH]1`, the IC50 turned out to be 10 nM.
For the compound `Cc1cccc(-c2ccc(-c3cc(C(=O)O)c4nc(C)[nH]c4c3)cc2)c1`, the IC50 stood at 1 nM.
